The experiment concerns DRG cells. The experiment in a line: Current clamp, changes in membrane potential in DRG cells. Type of experiment: cell-based, rat. The settings on record: control (0 mol/L) −47.95 ± 0.22. The procedure:
Experiments were performed on adult female Sprague Dawley rats. A […] population of DRG neurons that innervate the urinary bladder were labeled by retrograde axonal transport of the fluorescent dye, Fast Blue (4% w/v) (Polyloy, Gross Umstadt, Germany) injected into the wall of the bladder in halothane-anesthetized animals 7 days before the dissociation. The dye was injected with a 28 gauge needle at three to six sites on the dorsal surface of the organ (5–6 μL per site, total volume of 20–30 μL). Each injection site was washed with saline to minimize contamination of adjacent organs with the dye.
Freshly dissociated neurons from DRG were prepared from halothane-anesthetized animals. L6 and S1 DRG were dissected from animals and then dissociated in a shaking bath for 25 minutes at 35° C. with 5 mL DMEM (Sigma) containing 0.3 mg/mL trypsin (Type 3, Sigma), 1 mg/mL collagenase (Type 1, Sigma), and 0.1 mg/ML deoxyribonuclease (Type 4, Sigma). Trypsin inhibitor (Type 2a, Sigma) was then added thereto to neutralize the activity of trypsin. Individual DRG cell bodies were isolated by trituration and then plated on a poly-L-lysine-coated 35 mm Petri dishes.
Dye-labeled primary afferent neurons that innervate the urinary bladder were identified using an inverted phase-contrast microscope (Nikon, Tokyo, Japan) with fluorescent attachments (UV-1A filter; excitation wavelength, 365 nm). Gigaohm-seal whole-cell recordings were performed within 6–8 hours after cell dissociation at room temperature (20–22° C.) on each labeled neuron in a culture dish that usually contained three to seven labeled cells among a few hundred unlabeled neurons. The internal solution contained (in mmol/L): KCl 140, CaCl2 1, MgCl2 2, EGTA 11, HEPES 10, Mg-ATP 2, and Tris-GTP 0.4 adjusted to pH 7.4 with KOH. Patch electrodes had resistances of 1–4 M Ω when filled with the internal solution. Neurons were superfused at a flow rate of 1.5 mL/minutes with an external solution containing (in mmol/L): NaCl 150, KCl 5, CaCl2 2.5, MgCl2 1, HEPES 10, and D-glucose 10, adjusted to pH 7.4 with NaOH. All recordings were made with an Axopatch-1D patch-clamp amplifier (Axon Instruments, Foster City, Calif.), and data were acquired and analyzed by PCLAMP software (Axon Instruments).
In current-clamp recordings, membrane potential of DRG cell were measured before and after compound applications. The membrane potentials were normalized to control (before addition of the compound).

On to `C[C@](O)(C(=O)Nc1cccc2c1C(=O)c1sccc1CS2(=O)=O)C(F)(F)F` [Compound 1, (S)-(+)-N-(5,5-dioxido-10-oxo-4,10-dihydrothieno[3,2-c][1]benzothiepin-9-yl)-3,3,3-trifluoro-2-hydroxy-2-methylpropanamide], for which the Membrane potential is −53.67 ± 0.74 mV (Compound 1 1.0 × 10^−6 mol/L); −57.17 ± 0.53 mV (Compound 1 1.0 × 10^−7 mol/L); −49.80 ± 0.65 mV (Compound 1 1.0 × 10^−8 mol/L); −48.10 ± 0.48 mV (Compound 1 1.0 × 10^−9 mol/L); −42.67 ± 1.46 mV (Compound 1 5.0 × 10^−4 mol/L); −48.50 ± 1.28 mV (Compound 1 5.0 × 10^−5 mol/L). The molecule further had a Membrane potential (Compound 1 5.0 × 10^−6 mol/L) of −50.50 ± 0.88 mV.

(Values after patent US7122173B2, “Agent for the treatment of bladder irritative symptoms accompanied by benign prostatic hyperplasia” (Kyowa Hakko Kogyo Co., Ltd., priority 2001, dated 2006).)
